Marks after values point to notes of the source that are not given here.
Experiments:
[1] = Mouse head-twitch response (HTR) test; assay type: in vivo; details: i.p., HTR measured for 10 minutes
Protocol: Head twitch response (HTR) was evaluated using C57BL/6J mice (ages 7-10 weeks). Mice were ear tagged at least three days after arrival to the animal facility and allowed to rest for at least three days before behavioral testing. Small magnets (SuperMagnetMan—N45 magnet 3 mm diameter, 0.5 mm thickness) were glued to car tags (Stoelting—La Pias Aluminum Ear Tags) at least two days before mice were car tagged. The experimental setup was adapted from Gonzales-Macso (de la Fuente Revenga et al., 2019) and Kwan (Jefferson et al., 2022; Savalia et al., 2021), including experimental apparatus and MATLAB code for analysis.
Doses were randomly assigned, and age-matched controls were injected with vehicle and randomly interspersed with drug conditions. At least three animals per sex were used for each drug dose and condition. If animals were used in multiple HTR experiments, experimental sessions took place at least one week apart. Two animals were run at a time. Immediately after i.p. injection of psychedelic or entactogen drug, animals were placed in separate plastic boxes within a larger chamber (Home Depot—28 in. W×32 in. H×21.5 in. D), and HTR was measured for 10 minutes. A small lamp was placed in the back of the larger chamber, and a high-speed camera (Basler-Aca 1920-155 μm) was suspended from the ceiling to record video of the animals in the plastic boxes. […]

[2] = tested on: gene expression in amygdala, frontal cortex, hippocampus; assay: RNA-sequencing of rat brain areas after a single dose; assay type: in vivo; details: for Genes differentially regulated vs. vehicle: 10 mg/kg IP, 8 hours
5HT2A receptor = biological target: T1, 5HT2A receptor (Homo sapiens, UniProt P28223); assay: GPCRmax screen, agonist mode, 5HT2A; assay type: cell-based; details: 1 or 10 mM
T1 construct: host or cells: PathHunter cell lines

[3] = Methylone case series, Cohorts 1 and 2 (CGI-S/CGI-I, safety); assay type: in vivo, human
Protocol: CGI-S scale was also evaluated in a subset of patients from Cohort 2 post-treatment. Cohort 2 was evaluated for any observed or reported safety events following a single dosing session. Clinical Global Improvement Scale • Clinical Global Impressions (CGI) scale includes 2 components: CGI-S (“severity”) and CGI-I (“improvement”).
Only sessions that included methylone dosing were counted as dosing sessions.
Single sessions occurred for 8 of the 28 cases with no booster in two of these cases. In the remainder of the cases, multiple sessions occurred, and booster doses were used in all or some of the remaining patients ([…]) with multiple booster doses used in some or all of the sessions in 15 patients.

[4] = Rat plasma pharmacokinetics by administration route; assay type: in vivo; details: male, SD
From the text: Plasma was collected 0.25, 0.5, 1-, 2-, 4-, and 8-hours post-dose.

NET = NET (Rattus norvegicus, UniProt Q63380); assay: [3H]NE release from rat brain synaptosomes; assay type: biochemical; parameters: from tissue; synaptosomes for uptake and release; details: rat brain synaptosomes; read-out: Neurotransmitter release: EC50
Protocol: Test compounds and synaptosomes were prepared as described for uptake inhibition assays. Synaptosomes treated with [^3H]5-HT, [^3H]DA or [^3H]NE were loaded onto filter chambers containing GF/C filters and placed in a superfusion system. Oxygenated Krebs buffer was perfused through the chambers at a rate of 1.5 mL/minute at 35° C. using either an 8-channel or a 12-channel peristaltic pump. Trapped air bubbles were removed from the filters prior to collecting fractions to ensure an even flow over the synaptosomal bed. After a superfusion period of 45 minutes, 2 basal fractions were collected followed by 6 fractions following the addition of the test drug. […] Scintillation cocktail was added, and the filters counted to determine residual radioactivity. Drug-evoked release of neurotransmitter was calculated by subtracting the average of the two basal fractions (collected prior to the drug addition), from the four fractions collected in the presence of drug. The drug-evoked release was then expressed as a percentage of the basal release. Potassium-evoked release was calculated by subtracting the average of two fractions collected prior to the addition of high KCl buffer from that in the two fractions following addition of high KCl buffer. Potassium-stimulated release was calculated as a percentage of basal release. […]

[5] = tested on: Sprague Dawley rat neurons; assay: Neurite outgrowth in E18 cortical cultures; assay type: cell-based; details: 10 μM, applied day 1, fixed day 3-4
Protocol: Neuroplasticity is defined as changes in the structure, connections and function of neurons, including neurite outgrowth. […] E18 cortical cultures were harvested and plated on culture dishes. […] Neurite length was measured using ImageJ software.

NET, sequence (Q63380 1-617): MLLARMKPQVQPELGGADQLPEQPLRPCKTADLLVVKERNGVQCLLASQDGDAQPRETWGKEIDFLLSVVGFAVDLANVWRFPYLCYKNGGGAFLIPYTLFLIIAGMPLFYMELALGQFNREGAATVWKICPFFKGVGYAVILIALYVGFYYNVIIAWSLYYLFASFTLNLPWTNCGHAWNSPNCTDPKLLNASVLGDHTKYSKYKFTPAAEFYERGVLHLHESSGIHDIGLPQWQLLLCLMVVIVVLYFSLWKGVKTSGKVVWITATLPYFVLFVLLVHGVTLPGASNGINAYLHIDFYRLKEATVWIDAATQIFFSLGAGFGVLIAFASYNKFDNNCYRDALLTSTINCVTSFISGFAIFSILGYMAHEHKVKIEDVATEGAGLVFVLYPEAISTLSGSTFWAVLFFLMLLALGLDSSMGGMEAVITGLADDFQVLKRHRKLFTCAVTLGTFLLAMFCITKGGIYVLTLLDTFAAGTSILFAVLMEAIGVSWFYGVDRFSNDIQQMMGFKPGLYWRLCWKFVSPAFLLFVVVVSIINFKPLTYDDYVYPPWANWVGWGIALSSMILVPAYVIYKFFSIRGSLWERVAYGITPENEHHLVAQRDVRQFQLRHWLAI
T1 sequence (P28223 whole entry): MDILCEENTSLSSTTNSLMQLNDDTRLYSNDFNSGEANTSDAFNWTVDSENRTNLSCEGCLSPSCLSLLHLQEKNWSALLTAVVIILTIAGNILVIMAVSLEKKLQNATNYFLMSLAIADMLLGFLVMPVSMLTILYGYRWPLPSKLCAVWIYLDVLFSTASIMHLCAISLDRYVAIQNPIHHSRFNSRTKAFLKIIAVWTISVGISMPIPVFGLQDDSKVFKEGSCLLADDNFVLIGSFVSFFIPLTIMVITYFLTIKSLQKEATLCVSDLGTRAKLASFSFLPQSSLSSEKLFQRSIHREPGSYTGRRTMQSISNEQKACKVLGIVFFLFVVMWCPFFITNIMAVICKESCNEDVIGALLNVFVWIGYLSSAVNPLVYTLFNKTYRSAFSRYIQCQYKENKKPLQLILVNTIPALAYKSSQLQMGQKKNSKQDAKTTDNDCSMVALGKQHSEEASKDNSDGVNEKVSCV

Q: For `CNC(C)C(=O)c1ccc2c(c1)OCO2` (stereo not shown) [Methylone, 3,4-methylenedioxy-N-methylcathinone], which Head-twitch behaviors [1] is on record?
A: no effect on head-twitch behaviors at any dose tested

Q: And the “Genes regulated by methylone that are also regulated by MDMA” value ([2]; amygdala)?
A: 87%

Q: And the “Genes differentially regulated vs. vehicle” value ([2]; amygdala, >25% change, padj<0.1)?
A: 121 genes

Q: And the “Genes regulated by both treatments” value ([2]; frontal cortex)?
A: 154 genes

Q: And the Genes significantly regulated ([2]; frontal cortex, 10 mg/kg IP (Example 27))?
A: 480 genes

Q: And the “Genes differentially regulated vs. vehicle” value ([2]; frontal cortex)?
A: 471 genes

Q: And the “Genes differentially regulated vs. vehicle” value ([2]; hippocampus)?
A: 12 genes

Q: What about the Agonist % activity (5HT2A receptor) of the same molecule?
A: no agonist or antagonist activity

Q: And the “Adverse effects in healthy subjects” value ([3]; Cohort 1, 4 subjects, single session, total dose 790 or 870 mg)?
A: no adverse effects or after-effects were observed or reported

Q: And the “Cases well tolerated with no safety events reported” value ([3]; Cohort 2, 25 of 28 cases)?
A: 89.3%

Q: And the “Patients with initial improvement at the first methylone session” value ([3]; Cohort 2, 25 of 28 patients)?
A: ~90%

Q: What about the “Number of cases with CGI-I 2” value ([3]; Cohort 2, N = 28) of the same molecule?
A: 13

Q: And the “Number of cases with CGI-I 3” value ([3]; Cohort 2, N = 28)?
A: 4

Q: And the “Number of cases with CGI-I 4” value ([3]; Cohort 2, N = 28)?
A: 0

Q: What about the “Number of cases with CGI-I 5” value ([3]; Cohort 2, N = 28) of the same molecule?
A: 0

Q: What about the “Number of cases with CGI-I 6” value ([3]; Cohort 2, N = 28) of the same molecule?
A: 0

Q: And the “Number of cases with CGI-I 7” value ([3]; Cohort 2, N = 28)?
A: 0

Q: And the “Number of cases with CGI-I 1 (highest observed magnitude of improvement)” value ([3]; Cohort 2, N = 28 PTSD/MDD patients, oral)?
A: 11*

Q: What about the “Patients achieving CGI-I 1 or 2” value ([3]; Cohort 2 overall) of the same molecule?
A: 86%

Q: And the “Cases reporting a durable effect” value ([3]; MDD subset, 6 narratives with durability information)?
A: 5

Q: And the “Patients achieving CGI-I 1 or 2” value ([3]; MDD subset, 8/8 patients)?
A: 100%

Q: And the “Patients achieving CGI-I 1 or 2” value ([3]; PTSD subset, 16/20 patients)?
A: 80%

Q: And the “Case narratives reporting a durable effect” value ([3]; PTSD subset, 16 narratives with durability information)?
A: 15

Q: What about the AUC(0-inf) ([4]; IM 15 mg/kg) of the same molecule?
A: 4610 ng·h/mL

Q: What about the Cmax ([4]; IM 15 mg/kg) of the same molecule?
A: 5400 ng/mL

Q: What about the half-life ([4]; IM 15 mg/kg) of the same molecule?
A: 44.4 min

Q: What about the AUC(0-inf) ([4]; IM 20 mg/kg) of the same molecule?
A: 6370 ng·h/mL

Q: And the Cmax ([4]; IM 20 mg/kg)?
A: 5920 ng/mL

Q: And the half-life ([4]; IM 20 mg/kg)?
A: 42 min

Q: And the AUC(0-inf) ([4]; IP 15 mg/kg)?
A: 2590 ng·h/mL

Q: And the Cmax ([4]; IP 15 mg/kg)?
A: 1250 ng/mL

Q: What about the half-life ([4]; IP 15 mg/kg) of the same molecule?
A: 56.1 min

Q: What about the AUC(0-inf) ([4]; PO 15 mg/kg) of the same molecule?
A: 2290 ng·h/mL

Q: What about the Cmax ([4]; PO 15 mg/kg) of the same molecule?
A: 552 ng/mL

Q: And the half-life ([4]; PO 15 mg/kg)?
A: 136 min

Q: And the AUC(0-inf) ([4]; SC 15 mg/kg)?
A: 4330 ng·h/mL

Q: And the Cmax ([4]; SC 15 mg/kg)?
A: 3650 ng/mL

Q: And the half-life ([4]; SC 15 mg/kg)?
A: 49.2 min

Q: And the AUC(0-inf) ([4]; SC 20 mg/kg)?
A: 5960 ng·h/mL

Q: What about the Cmax ([4]; SC 20 mg/kg) of the same molecule?
A: 4320 ng/mL

Q: And the half-life ([4]; SC 20 mg/kg)?
A: 52.2 min

Q: And the EC50 (NET)?
A: 330 nM

Q: And the “Increase in neurite length vs. vehicle” value [5]?
A: ~2 fold

Source: patent US12295937B2, “Psychoactive medicines and their use for treating psychiatric and neurological conditions and disorders” (Transcend Therapeutics, Inc., priority 2021, dated 2025)
